This is an account of results in PubChem BioAssay (NCI).

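1) Cells in 96-well plates. 2) Compound, 48 h, 5 concentrations. 3) Linear interpolation between surrounding doses. 4) Unreached endpoint = highest concentration. GI50 is the concentration that inhibits growth by half. TGI: concentration producing complete growth inhibition.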

Among the test systems are U251 CNS; MDA-MB-231 breast; NCI/ADR-RES ovarian; HCC-2998 colon; A549 NSCLC; K-562 leukemia; SN12C renal; T-47D breast; HOP-92 NSCLC; COLO 205 colon.
Common to all, as to experiment: growth of human tumour cells (NCI), 48 h

For the compound `CCc1oc2ccccc2c1C(=O)c1cc(I)c(O)c(I)c1`, the GI50 in the assay with U251 CNS was 4400 nM; with MDA-MB-231 breast, 5640 nM; in the assay with NCI/ADR-RES ovarian, 1490 nM; in the assay with HCC-2998 colon, 4840 nM; with A549 NSCLC, 3610 nM; in the assay on K-562 leukemia, 726 nM. The GI50 in the assay with SN12C renal was 4180 nM; in the assay on T-47D breast, 4560 nM; with HOP-92 NSCLC, 1040 nM; in the assay on COLO 205 colon it was 5050 nM. Besides, the TGI with U251 CNS came to 18300 nM; with MDA-MB-231 breast it was 20800 nM; in the assay on NCI/ADR-RES ovarian, 5250 nM; with HCC-2998 colon, 17500 nM; in the assay on A549 NSCLC it was 17600 nM; with K-562 leukemia, 18800 nM. For the same compound, the TGI was 17800 nM in the assay on SN12C renal, 20800 nM in the assay with T-47D breast, 7730 nM with HOP-92 NSCLC and 18700 nM in the assay on COLO 205 colon.
On to `Cn1cnc([N+](=O)[O-])c1[Se]c1nc(N)nc2c1ncn2C1OC(CO)C(O)C1O` (stereo not drawn), for which the TGI with U251 CNS, in the assay with MDA-MB-231 breast, in the assay with NCI/ADR-RES ovarian, in the assay with HCC-2998 colon, in the assay with A549 NSCLC and in the assay with K-562 leukemia was greater than 100000 nM each time. Further, the TGI in the assay with SN12C renal, in the assay with T-47D breast, in the assay on HOP-92 NSCLC and with COLO 205 colon was greater than 100000 nM each time.
Consider `CCOC(=O)c1c(C)nc2c(c1N)/C(=C/c1ccc(OC)cc1)C(=O)N2Cc1ccc(F)cc1`, for which the GI50 with U251 CNS is 197 nM; in the assay on MDA-MB-231 breast it was 236 nM; in the assay with NCI/ADR-RES ovarian, 299 nM; in the assay with HCC-2998 colon, 255 nM; in the assay with A549 NSCLC it was 385 nM; in the assay on K-562 leukemia it was 207 nM. For the same compound, the GI50 with SN12C renal is 244 nM; in the assay with T-47D breast, 148 nM; in the assay with HOP-92 NSCLC, 263 nM; in the assay with COLO 205 colon, 146 nM. For the same compound, the TGI turned out to be 508 nM in the assay with U251 CNS; 760 nM in the assay on MDA-MB-231 breast; 762 nM with HCC-2998 colon; 2390 nM in the assay with A549 NSCLC; 1010 nM with K-562 leukemia; 750 nM in the assay with SN12C renal. Besides, the figures for the TGI in the assay with T-47D breast, in the assay on HOP-92 NSCLC and in the assay on COLO 205 colon were 1910 nM, 859 nM and 333 nM, respectively.
For `COC(=O)c1c(C)[nH]c(/C=C2\N=C(c3ccc[nH]3)C=C2OC)c1C`, the GI50 in the assay with U251 CNS is 117 nM; in the assay with MDA-MB-231 breast, 169 nM; in the assay on NCI/ADR-RES ovarian it was 109 nM; in the assay on HCC-2998 colon, 668 nM; in the assay with A549 NSCLC it was 387 nM; in the assay on K-562 leukemia, 764 nM. In addition, the GI50 is 389 nM in the assay on SN12C renal, 816 nM with T-47D breast, 169 nM with HOP-92 NSCLC and 288 nM in the assay on COLO 205 colon. The TGI in the assay with U251 CNS was 2490 nM; with MDA-MB-231 breast, 1270 nM; with NCI/ADR-RES ovarian it was 4600 nM; in the assay with HCC-2998 colon it was 2780 nM; with K-562 leukemia it was greater than 27500 nM; in the assay with SN12C renal it was greater than 75400 nM. For the same compound, the TGI in the assay on T-47D breast came out at 3990 nM; with HOP-92 NSCLC it was 711 nM; with COLO 205 colon, 1600 nM.
As to `COc1ccc(-c2nnc(COc3ccc(NC(=O)Nc4ccc(Cl)c(C(F)(F)F)c4)cc3F)o2)cc1`, the GI50 is 1930 nM with U251 CNS; 1910 nM in the assay on MDA-MB-231 breast; 3280 nM in the assay with NCI/ADR-RES ovarian; 4860 nM in the assay on HCC-2998 colon; 3250 nM in the assay on A549 NSCLC; 3310 nM in the assay with K-562 leukemia. Also, the GI50 is 3800 nM with SN12C renal, 3020 nM in the assay with T-47D breast, 1870 nM with HOP-92 NSCLC and 2020 nM in the assay with COLO 205 colon. In addition, the TGI in the assay with U251 CNS is 5700 nM; in the assay with MDA-MB-231 breast it was 8720 nM; in the assay on NCI/ADR-RES ovarian, greater than 100000 nM; in the assay with HCC-2998 colon it was 53100 nM; with A549 NSCLC it was 18700 nM; in the assay on K-562 leukemia, 53900 nM. Further, the TGI turned out to be 56000 nM with SN12C renal, 14500 nM in the assay with T-47D breast, 5450 nM in the assay on HOP-92 NSCLC and 5060 nM in the assay with COLO 205 colon.
For `COc1ccc(OC)c(C(=O)c2oc3ccc(Br)cc3c2N)c1`, the GI50 with U251 CNS was 397 nM; in the assay with MDA-MB-231 breast, 847 nM; with NCI/ADR-RES ovarian it was 341 nM; in the assay with HCC-2998 colon it was 1320 nM; in the assay with A549 NSCLC it was 493 nM; in the assay on K-562 leukemia, 82 nM. The GI50 was 648 nM in the assay on SN12C renal, 452 nM in the assay with T-47D breast, 1710 nM in the assay with HOP-92 NSCLC and 406 nM in the assay on COLO 205 colon. Besides, the TGI is 16400 nM with U251 CNS; 26700 nM in the assay on MDA-MB-231 breast; greater than 77700 nM in the assay on NCI/ADR-RES ovarian; 12800 nM in the assay on HCC-2998 colon; greater than 54600 nM in the assay on A549 NSCLC; 35200 nM in the assay with K-562 leukemia. Further, the TGI is 29300 nM in the assay on SN12C renal, greater than 67600 nM with T-47D breast, 38100 nM in the assay with HOP-92 NSCLC and 2110 nM in the assay with COLO 205 colon.
